The target in experiment [1] is T1, ROCK2 (Homo sapiens, UniProt O75116).
T1 construct: purchased Reaction Biology
Description: ROCK2 kinase assay (Reaction Biology Hot Spot kinase assay). As to conditions: purified kinase, 33P-ATP (10 μM), P81 filter-binding method. The experiment is classed as biochemical. The procedure:
(§1) ROCK2 and ROCK] kinase assays
(§2) ROCK2 and ROCK1 enzyme potencies were determined by Reaction Biology (www.reactionbiology.com) using their Hot Spot kinase Assay. The base reaction buffer for the assay was 20 mM Hepes (pH 7.5), 10 mM MgCl2, 1 mM EGTA, 0.01% Brij35, 0.02 mg/mL BSA, 0.1 mM Na3VO4, and 2 mM DTT with a 1% DMSO concentration. Required cofactors were added individually to each kinase reaction. The substrate was freshly prepared in the reaction buffer described above, and then cofactors were delivered. The purified kinase was added to the substrate solution and then gently mixed. Compounds were added from 100% DMSO into the kinase reaction mixture by Acoustic technology (Echo550; nanoliter range) and then incubated for 20 min at room temperature. ^33P-ATP (10 μM) was delivered to initiate the reaction, and then the mixture was incubated again for two hours at room temperature. […] Nat. Biotechnol. 2011 Oct. 30; 29(11):1039-45. doi: 10.1038/nbt.2017.
(§3) The compounds were categorized based on IC50 value as “+”, “++”, “+++”, and “++++”. The category “+” refers to compounds with ROCK IC50 value of >10 μM. The category “++” refers to compounds with a ROCK IC50 value of 10 to 3 μM. The category “+++” refers to compounds with ROCK IC50 value of 3 to 0.3 μM. The category “++++” refers to compounds with a ROCK IC50 value of <0.3 μM. “ND” refers to “not determined.” The compound of an “Example Number” is the final product of an Example entitled the Example Number.

In experiment [2] the target is T2, ROCK1 (Homo sapiens, UniProt Q13464).
T2 construct: purchased Reaction Biology
T2 sequence (Q13464 whole entry): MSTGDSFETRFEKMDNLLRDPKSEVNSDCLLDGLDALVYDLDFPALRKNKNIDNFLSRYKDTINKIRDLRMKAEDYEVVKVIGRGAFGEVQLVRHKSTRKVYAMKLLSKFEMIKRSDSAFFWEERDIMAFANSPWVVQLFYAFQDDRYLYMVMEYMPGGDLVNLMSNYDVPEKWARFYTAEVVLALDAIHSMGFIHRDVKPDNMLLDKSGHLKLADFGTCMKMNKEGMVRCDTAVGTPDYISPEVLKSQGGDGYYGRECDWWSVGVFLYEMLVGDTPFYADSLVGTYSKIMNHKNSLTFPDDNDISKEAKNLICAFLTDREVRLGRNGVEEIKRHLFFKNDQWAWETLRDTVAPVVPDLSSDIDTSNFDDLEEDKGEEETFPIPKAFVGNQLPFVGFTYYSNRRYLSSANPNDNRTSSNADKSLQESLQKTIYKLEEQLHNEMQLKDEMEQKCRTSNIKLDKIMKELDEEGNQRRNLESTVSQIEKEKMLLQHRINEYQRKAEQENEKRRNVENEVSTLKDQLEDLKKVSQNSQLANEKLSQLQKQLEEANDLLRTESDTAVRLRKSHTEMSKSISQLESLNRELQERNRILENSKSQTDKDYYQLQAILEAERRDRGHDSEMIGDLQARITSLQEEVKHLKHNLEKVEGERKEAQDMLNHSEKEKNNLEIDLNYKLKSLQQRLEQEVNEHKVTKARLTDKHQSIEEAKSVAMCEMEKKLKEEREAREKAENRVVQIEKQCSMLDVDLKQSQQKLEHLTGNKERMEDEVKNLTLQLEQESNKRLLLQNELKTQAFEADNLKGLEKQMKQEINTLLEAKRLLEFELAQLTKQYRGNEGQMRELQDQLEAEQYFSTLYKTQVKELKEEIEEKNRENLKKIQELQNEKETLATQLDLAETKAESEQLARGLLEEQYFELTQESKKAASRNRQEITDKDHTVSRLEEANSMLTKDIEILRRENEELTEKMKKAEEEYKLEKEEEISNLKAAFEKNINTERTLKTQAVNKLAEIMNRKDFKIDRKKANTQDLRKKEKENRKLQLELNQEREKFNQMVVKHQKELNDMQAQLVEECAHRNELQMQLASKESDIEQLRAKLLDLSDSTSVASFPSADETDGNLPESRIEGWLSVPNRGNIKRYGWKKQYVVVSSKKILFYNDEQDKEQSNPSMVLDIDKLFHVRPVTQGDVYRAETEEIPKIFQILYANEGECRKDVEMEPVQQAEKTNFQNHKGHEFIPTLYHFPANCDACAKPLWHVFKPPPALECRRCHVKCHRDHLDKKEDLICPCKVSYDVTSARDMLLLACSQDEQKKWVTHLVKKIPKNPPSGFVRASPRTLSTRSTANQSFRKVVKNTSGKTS
The experiment is described as follows: ROCK1 kinase assay (Reaction Biology Hot Spot kinase assay). As to conditions: purified kinase, 33P-ATP (10 μM), P81 filter-binding method. The experiment is classed as biochemical. Here is the method:
as §1, §2, §3

T1 sequence (O75116 whole entry): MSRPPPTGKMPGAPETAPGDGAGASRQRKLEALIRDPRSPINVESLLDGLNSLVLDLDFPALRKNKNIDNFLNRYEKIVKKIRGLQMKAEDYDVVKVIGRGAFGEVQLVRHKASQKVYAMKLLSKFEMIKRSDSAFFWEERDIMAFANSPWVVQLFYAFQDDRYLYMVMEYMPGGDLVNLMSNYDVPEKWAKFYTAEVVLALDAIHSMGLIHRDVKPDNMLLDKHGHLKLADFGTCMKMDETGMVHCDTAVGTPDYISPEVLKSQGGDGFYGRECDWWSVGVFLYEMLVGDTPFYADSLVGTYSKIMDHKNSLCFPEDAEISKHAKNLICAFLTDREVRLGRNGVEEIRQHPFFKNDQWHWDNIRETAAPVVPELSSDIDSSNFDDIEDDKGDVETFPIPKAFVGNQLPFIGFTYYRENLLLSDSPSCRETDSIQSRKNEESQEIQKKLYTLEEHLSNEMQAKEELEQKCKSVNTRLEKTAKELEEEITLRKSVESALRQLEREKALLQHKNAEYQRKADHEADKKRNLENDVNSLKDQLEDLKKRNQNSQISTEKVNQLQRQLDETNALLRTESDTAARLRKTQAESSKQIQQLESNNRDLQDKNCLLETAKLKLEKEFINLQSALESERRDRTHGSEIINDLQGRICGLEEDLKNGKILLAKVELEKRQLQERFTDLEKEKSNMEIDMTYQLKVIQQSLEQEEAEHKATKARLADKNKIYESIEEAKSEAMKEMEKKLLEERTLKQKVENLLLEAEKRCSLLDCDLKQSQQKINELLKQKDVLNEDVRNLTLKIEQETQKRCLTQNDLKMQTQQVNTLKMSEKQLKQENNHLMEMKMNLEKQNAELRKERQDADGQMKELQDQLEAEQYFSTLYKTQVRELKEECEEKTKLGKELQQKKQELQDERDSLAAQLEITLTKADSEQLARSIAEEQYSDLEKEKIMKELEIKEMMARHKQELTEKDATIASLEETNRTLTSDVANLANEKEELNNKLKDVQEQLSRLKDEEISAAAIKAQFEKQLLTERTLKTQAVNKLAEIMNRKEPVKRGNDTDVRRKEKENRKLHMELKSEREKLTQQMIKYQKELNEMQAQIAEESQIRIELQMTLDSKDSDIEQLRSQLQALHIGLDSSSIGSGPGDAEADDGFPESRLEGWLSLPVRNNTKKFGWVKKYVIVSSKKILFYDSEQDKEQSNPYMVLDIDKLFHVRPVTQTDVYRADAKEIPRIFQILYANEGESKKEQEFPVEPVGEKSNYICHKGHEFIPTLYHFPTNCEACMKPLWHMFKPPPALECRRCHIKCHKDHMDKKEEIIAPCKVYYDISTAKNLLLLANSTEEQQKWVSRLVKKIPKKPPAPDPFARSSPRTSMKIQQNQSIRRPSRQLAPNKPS

In general, IC50 refers to the concentration needed to halve the response being measured. Read a high IC50 as weaker potency in that assay. With `Cn1cc(C(=O)Nc2cccc(-n3ccc(Nc4ccc5[nH]ncc5c4)n3)c2)cn1` [Example 1, N-(3-(3-((1H-indazol-5-yl)amino)-1H-pyrazol-1-yl)phenyl)-1-methyl-1H-pyrazole-4-carboxamide], the IC50 in experiment [1] is 0.3 to 3 µM; in experiment [2], 3 to 10 µM.

Turning to `Cc1cn(-c2cccc(NC(=O)c3cnn(C)c3)c2)nc1Nc1ccc2[nH]ncc2c1` [Example 3, N-(3-(3-((1H-indazol-5-yl)amino)-4-methyl-1H-pyrazol-1-yl)phenyl)-1-methyl-1H-pyrazole-4-carboxamide], the IC50 in experiment [1] and in experiment [2] was less than 0.3 µM each time.

As to `Cc1cn(-c2cccc(NC(=O)c3cccnc3)c2)nc1Nc1ccc2[nH]ncc2c1` [Example 4, N-(3-(3-((1H-indazol-5-yl)amino)-4-methyl-1H-pyrazol-1-yl)phenyl)nicotinamide], the IC50 in experiment [1] and in experiment [2] was less than 0.3 µM each time.

For `Cc1cc(Nc2ccc3[nH]ncc3c2)nn1-c1cccc(NC(=O)c2c[nH]cn2)c1` [Example 5, N-(3-(3-((1H-indazol-5-yl)amino)-5-methyl-1H-pyrazol-1-yl)phenyl)-1H-imidazole-4-carboxamide], the IC50 is less than 0.3 µM in experiment [1] and 0.3 to 3 µM in experiment [2].

For `O=C(Nc1cccc(-n2ccc(Nc3ccc4[nH]ncc4c3)n2)c1)c1cccnc1` [Example 6], the IC50 in experiment [1] and in experiment [2] was 0.3 to 3 µM in each case.

With `Cc1cc(Nc2ccc3[nH]ncc3c2)nn1-c1cccc(NC(=O)c2cccnc2)c1` [Example 9], the results for the IC50 in experiment [1] and in experiment [2] were less than 0.3 µM and 0.3 to 3 µM, respectively.

On to `COc1cc(-n2ccc(Nc3ccc4[nH]ncc4c3)n2)ccc1OCC(=O)NC(C)C` [Example 11], for which the half-inhibitory concentration (IC50) in experiment [1] is 0.3 to 3 µM; in experiment [2] it was more than 10 µM.

With `COc1cc(-n2ccc(Nc3ccc4[nH]ncc4c3Cl)n2)ccc1OCC(=O)NC(C)C` [Example 12], the IC50 in experiment [1] was less than 0.3 µM; in experiment [2], 0.3 to 3 µM.

As to `COc1cc(-n2cc(C)c(Nc3ccc4[nH]ncc4c3Cl)n2)ccc1OCC(=O)NC(C)C` [Example 13], the IC50 is less than 0.3 µM in experiment [1] and 0.3 to 3 µM in experiment [2].

In the case of `COc1cc(-n2nc(Nc3ccc4[nH]ncc4c3Cl)cc2C)ccc1OCC(=O)NC(C)C` [Example 14], the IC50 is 0.3 to 3 µM in experiment [1] and more than 10 µM in experiment [2].

Turning to `CC(C)NC(=O)COc1ccc(-n2nc(Nc3ccc4[nH]ncc4c3)c3ccccc32)cc1` [Example 16], the IC50 in experiment [1] was 0.3 to 3 µM; in experiment [2] it was more than 10 µM.

For `COc1cc(-n2nc(Nc3ccc4[nH]ncc4c3)c3ccccc32)ccc1OCC(=O)NC(C)C` [Example 17], the IC50 in experiment [1] was less than 0.3 µM; in experiment [2] it was 0.3 to 3 µM.

Turning to `COc1cc(-n2nc(Nc3ccc4[nH]ncc4c3Cl)c3ccccc32)ccc1OCC(=O)NC(C)C` [Example 18], the IC50 was 0.3 to 3 µM in experiment [1] and 3 to 10 µM in experiment [2].

Consider `COc1nc(-n2nc(Nc3ccc4[nH]ncc4c3Cl)c3ccccc32)ccc1OCC(=O)NC(C)C` [Example 19], for which the IC50 in experiment [1] and in experiment [2] was less than 0.3 µM throughout.

With `Cn1cc(C(=O)Nc2cccc(-n3nc(Nc4ccc5[nH]ncc5c4)c4ccccc43)c2)cn1` [Example 21], the values for the IC50 in experiment [1] and in experiment [2] were 0.3 to 3 µM and 3 to 10 µM, respectively.

For `O=C(Nc1cccc(-n2nc(Nc3ccc4[nH]ncc4c3)c3ccccc32)c1)c1c[nH]cn1` [Example 22], the IC50 was 0.3 to 3 µM in experiment [1] and 3 to 10 µM in experiment [2].

For the compound `COc1ncc(C(=O)Nc2cccc(-n3nc(Nc4ccc5[nH]ncc5c4)c4ccccc43)c2)cn1` [Example 25], the IC50 in experiment [1] and in experiment [2] was 0.3 to 3 µM each time.

On to `O=C(Cc1ccccn1)Nc1cccc(-n2nc(Nc3ccc4[nH]ncc4c3)c3ccccc32)c1` [Example 26], for which the figures for the IC50 in experiment [1] and in experiment [2] were 0.3 to 3 µM and 3 to 10 µM, respectively.

Consider `O=C(Cc1ncc[nH]1)Nc1cccc(-n2nc(Nc3ccc4[nH]ncc4c3)c3ccccc32)c1` [Example 27], for which the IC50 in experiment [1] is 0.3 to 3 µM; in experiment [2] it was 3 to 10 µM.

For the compound `Cn1cc(C(=O)Nc2cccc(-n3nc(Nc4ccc5[nH]ncc5c4Cl)c4ccccc43)c2)cn1` [Example 31], the IC50 in experiment [1] is less than 0.3 µM; in experiment [2], 0.3 to 3 µM.

On to `O=C(Nc1cccc(-n2nc(Nc3ccc4[nH]ncc4c3Cl)c3ccccc32)c1)c1cccnc1` [Example 32], for which the IC50 in experiment [1] was less than 0.3 µM; in experiment [2] it was more than 10 µM.

With `Cn1cc(C(=O)Nc2cccc(-c3cc(Nc4ccc5[nH]ncc5c4)no3)c2)cn1` [Example 33], the IC50 in experiment [1] and in experiment [2] was less than 0.3 µM in each case.

`O=C(Nc1cccc(-c2cc(Nc3ccc4[nH]ncc4c3)no2)c1)c1c[nH]cn1` [Example 34, N-(3-(3-((1H-indazol-5-yl)amino)isoxazol-5-yl)phenyl)-1H-imidazole-4-carboxamide]: the IC50 in experiment [1] and in experiment [2] was less than 0.3 µM each time.

Consider `O=C(Nc1cccc(-c2cc(Nc3ccc4[nH]ncc4c3)no2)c1)c1cccnc1` [Example 35], for which the figures for the IC50 in experiment [1] and in experiment [2] were less than 0.3 µM and 0.3 to 3 µM, respectively.

For the compound `Cn1cc(C(=O)Nc2cccc(-c3nnc(Nc4ccc5[nH]ncc5c4)o3)c2)cn1` [Example 36], the IC50 in experiment [1] and in experiment [2] was less than 0.3 µM each time.

For `O=C(Nc1cccc(-c2nnc(Nc3ccc4[nH]ncc4c3)o2)c1)c1cn[nH]c1` [Example 37], the IC50 in experiment [1] and in experiment [2] was more than 10 µM throughout.

As to `O=C(Nc1cccc(-c2nnc(Nc3ccc4[nH]ncc4c3)o2)c1)c1cccnc1` [Example 38], the IC50 in experiment [1] and in experiment [2] was less than 0.3 µM throughout.

Regarding `Cn1cc(C(=O)Nc2cccc(-c3nc(Nc4ccc5[nH]ncc5c4)no3)c2)cn1` [Example 39], the IC50 in experiment [1] and in experiment [2] was less than 0.3 µM in each case.

On to `O=C(Nc1cccc(-c2nc(Nc3ccc4[nH]ncc4c3)no2)c1)c1cn[nH]c1` [Example 40], for which the half-inhibitory concentration (IC50) in experiment [1] and in experiment [2] was less than 0.3 µM each time.

In the case of `O=C(Nc1cccc(-c2nc(Nc3ccc4[nH]ncc4c3)no2)c1)c1cccnc1` [Example 41], the IC50 in experiment [1] was less than 0.3 µM; in experiment [2], 0.3 to 3 µM.

Consider `Cn1cc(C(=O)Nc2cccc(-c3noc(Nc4ccc5[nH]ncc5c4)n3)c2)cn1` [Example 42], for which the IC50 in experiment [1] and in experiment [2] was less than 0.3 µM throughout.

Consider `O=C(Nc1cccc(-c2noc(Nc3ccc4[nH]ncc4c3)n2)c1)c1cccnc1` [Example 44], for which the IC50 in experiment [1] and in experiment [2] was less than 0.3 µM throughout.

For the compound `Cn1cc(C(=O)Nc2cccc(-n3nc(Nc4ccc5[nH]ncc5c4)c4ccccc43)n2)cn1` [Example 45, N-(6-(3-((1H-indazol-5-yl)amino)-1H-indazol-1-yl)pyridin-2-yl)-1-methyl-1H-pyrazole-4-carboxamide], the IC50 in experiment [1] and in experiment [2] was less than 0.3 µM throughout.

Regarding `Cn1cc(C(=O)Nc2cccc(-n3nc(Nc4ccc5[nH]ncc5c4Cl)c4ccccc43)n2)cn1` [Example 46], the IC50 in experiment [1] and in experiment [2] was less than 0.3 µM each time.

As for `Cn1cc(C(=O)Nc2ccnc(-n3nc(Nc4ccc5[nH]ncc5c4Cl)c4ccccc43)c2)cn1` [Example 47], the IC50 in experiment [1] and in experiment [2] was more than 10 µM in each case.

Turning to `Cc1coc(-c2cc(-c3nnc(Nc4ccc5[nH]ncc5c4Cl)o3)ccn2)n1` [Example 48, N-(4-chloro-1H-indazol-5-yl)-5-(2-(4-methyloxazol-2-yl)pyridin-4-yl)-1,3,4-oxadiazol-2-amine], the IC50 in experiment [1] and in experiment [2] was less than 0.3 µM in each case.

Regarding `Clc1c(Nc2nnc(-c3ccnc(-c4ncco4)c3)o2)ccc2[nH]ncc12` [Example 49], the IC50 in experiment [1] and in experiment [2] was less than 0.3 µM in each case.

Take `Clc1c(Nc2nnc(-c3cccc(-c4ncco4)c3)o2)ccc2[nH]ncc12` [Example 50, N-(4-chloro-1H-indazol-5-yl)-5-(3-(oxazol-2-yl)phenyl)-1,3,4-oxadiazol-2-amine]: the IC50 in experiment [1] and in experiment [2] was less than 0.3 µM throughout.

As for `Cn1cc(-c2nnc(Nc3ccc4[nH]ncc4c3Cl)o2)cc(NC(=O)c2ccccc2F)c1=O` [Example 52, N-(5-(5-((4-chloro-1H-indazol-5-yl)amino)-1,3,4-oxadiazol-2-yl)-1-methyl-2-oxo-1,2-dihydropyridin-3-yl)-2-fluorobenzamide], the IC50 in experiment [1] and in experiment [2] was less than 0.3 µM each time.

On to `Cn1cc(C(=O)Nc2cc(-n3nc(Nc4ccc5[nH]ncc5c4Cl)c4ccccc43)ccn2)cn1` [Example 53, N-(4-(3-((4-chloro-1H-indazol-5-yl)amino)-1H-indazol-1-yl)pyridin-2-yl)-1-methyl-1H-pyrazole-4-carboxamide], for which the IC50 in experiment [1] is less than 0.3 µM; in experiment [2] it was 3 to 10 µM.

With `Cn1cc(C(=O)Nc2cncc(-n3nc(Nc4ccc5[nH]ncc5c4Cl)c4ccccc43)c2)cn1` [Example 54, N-(5-(3-((4-chloro-1H-indazol-5-yl)amino)-1H-indazol-1-yl)pyridin-3-yl)-1-methyl-1H-pyrazole-4-carboxamide], the IC50 in experiment [1] and in experiment [2] was more than 10 µM in each case.
